These are literature values, as cited in PMC4469068 (Endocrine-related cancer, 2012).

*1 amine or outer side, *2 acyl side, *3 side chain or, on linkers, in order; H or OH if unused. Where a SMILES comes first, the peptide text is derived from it. Side-chain parts run from the residue outwards. [ ]: non-standard residue; d: D form. The star is where a group is joined. Ethylenediamine = C(CN[*:2])N[*:1]; Hyp = O=C(O)[C@@H]1C[C@@H](O)CN1; Phg = N[C@H](C(=O)O)c1ccccc1; CO = O=C([*:1])[*:2]; Bn = c1ccc(C*)cc1

Data set [1] has as its system pancreatic neuroendocrine tumors. The note with it: ref Yao et al. 2011.
For another data set, the system named is patients with acromegaly. The note with it: pasireotide 200–600 mcg BID; ref Petersenn et al. 2010.
In data set [2] the test system is patients with octreotide-refractory carcinoid syndrome. The note with it: pasireotide 300–1200 mcg bid; ref Kvols et al. 2006.
Another data set deals with QTc interval. The note with it: 1950 mcg twice daily, healthy adults; ref Novartis, 2012.
Data set [3] has as its system human corticotroph or somatotroph tumor cell lines. The note with it: in vitro; ref Batista, et al. 2006; Danila, et al. 2001.
In data set [4] the test system is cell lines derived from small intestine or pancreatic neuroendocrine tumors. The note with it: in vitro; ref Kidd, et al. 2008.
In data set [5] the test system is advanced carcinoid tumors. Conditions: vs. 6 months with placebo; ref Rinke, et al. 2009.

In the case of `CO[C@H]1C[C@@H]2CC[C@@H](C)[C@@](O)(O2)C(=O)C(=O)N2CCCC[C@H]2C(=O)O[C@H]([C@H](C)C[C@@H]2CC[C@@H](OCCO)[C@H](OC)C2)CC(=O)[C@H](C)/C=C(\C)[C@@H](O)[C@@H](OC)C(=O)[C@H](C)C[C@H](C)/C=C/C=C/C=C/1C` [everolimus], in data set [1] (everolimus alone, randomized trial), the “rate of tumor regression” value is 64%. Further, the “hyperglycemia, patients in the everolimus treatment arm” value in data set [1] (single agent, any grade) is on record as 13%. For the same molecule, in data set [1] (single agent), the “hyperglycemia categorized as grade 3 or 4” value was 5%.

Regarding `NCCCC[C@@H]1NC(=O)[C@@H](Cc2c[nH]c3ccccc23)NC(=O)[C@H](c2ccccc2)NC(=O)[C@@H]2C[C@@H](OC(=O)NCCN)CN2C(=O)[C@H](Cc2ccccc2)NC(=O)[C@H](Cc2ccc(OCc3ccccc3)cc2)NC1=O` [pasireotide] (cyclo([Hyp]([CO-Ethylenediamine])[Phg][dW]KY(Bn)F)), the binding affinity entry in the data set on sst1 (ref Schmid 2008), in the data set on sst2 (ref Schmid 2008), in the data set with sst3 (ref Schmid 2008) and in the data set with sst5 (ref Schmid 2008) was “high binding affinity” throughout. Also, the “binding affinity compared with octreotide” value in the data set on sst1 (ref Schmid and Schoeffter 2004) is on record as “greater binding affinity”; in the data set on sst2 (ref Schmid and Schoeffter 2004) it was “comparable affinity”; in the data set with sst3 (ref Schmid and Schoeffter 2004), “greater binding affinity”; in the data set with sst5 (ref Schmid and Schoeffter 2004) it was “greater binding affinity”. Besides, the “hyperglycemia, patients affected” value in the data set with patients with acromegaly is 6.7%; in [2], 27%. The “effect on QTc” value in the data set on QTc interval was “possible QTc prolongation effect”. Also, the results for the “effect on cell proliferation” value in data set [3] and in data set [4] were “suppress cell proliferation” and “inhibition of cell proliferation”, respectively.

With octreotide, the “median time to tumor progression” value in data set [5] is 14.3 months.
